These results are taken from patent US20110130365A1, “Fluorinated Heteroaryls” (priority 2008, published 2011).

Broadly, the EC50 is the concentration giving half of the maximal effect. A lower EC50 goes with an effect from little substance.

Structures are written as SMILES. Counter-ions that a name gives are not always drawn.

For this assay, the target named is T1, Full-length glucokinase (beta cell isoform) (Homo sapiens, UniProt P35557).
T1 construct: Full-length glucokinase (beta cell isoform) was His-tagged at N-terminus; His tag (N); made in house
T1 sequence (P35557 1-465): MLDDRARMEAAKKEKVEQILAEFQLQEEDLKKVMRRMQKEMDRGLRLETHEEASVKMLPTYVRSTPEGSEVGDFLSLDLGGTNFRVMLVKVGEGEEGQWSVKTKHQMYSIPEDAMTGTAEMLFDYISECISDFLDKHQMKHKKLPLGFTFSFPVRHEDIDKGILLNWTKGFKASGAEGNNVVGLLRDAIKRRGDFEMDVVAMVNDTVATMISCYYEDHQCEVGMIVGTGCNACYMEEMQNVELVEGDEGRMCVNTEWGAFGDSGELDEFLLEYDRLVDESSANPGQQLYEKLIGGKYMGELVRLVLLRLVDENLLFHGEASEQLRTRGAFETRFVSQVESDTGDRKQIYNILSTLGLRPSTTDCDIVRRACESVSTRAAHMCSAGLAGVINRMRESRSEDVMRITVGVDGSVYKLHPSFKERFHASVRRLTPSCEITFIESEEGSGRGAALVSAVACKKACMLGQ
The assay is described as follows: Glucokinase activation assay (PK/LDH-coupled, NADH depletion at 340 nm). The class given is biochemical. The note with it: 5 mM glucose, 2.5 mM ATP, pH 7.1, room temperature, values given as a range where N>1; for Emax: fitted % max activation, read-out: Maximum Activation. How it is done:
Full-length glucokinase (beta cell isoform) was His-tagged at N-terminus and purified by a Ni column followed by size exclusion chromatography. A 320 mL column was packed in house using Pharmacia Superdex75 preparation grade resin. Glucose was obtained from Calbiochem (San Diego, Calif.) and other reagents were purchased from Sigma (St. Louis, Mo.).
All assays were performed in a Corning 384-well plate using Spectramax PLUS spectrophotometer (Molecular Devices, Sunnyvale, Calif.) at room temperature. The final assay volume was 40 μL. The buffer conditions used in this assay were as follows: 50 mM HEPES, 5 mM glucose, 2.5 mM ATP, 3.5 mM MgCl2, 0.7 mM NADH, 2 mM dithiothreitol, 1 Unit/mL PK/LDH, 0.2 mM phosphoenolpyruvate, and 25 mM KCl. The buffer pH was 7.1. The test compound in DMSO solution was added to the buffer and mixed by a plate shaker for 7.5 minutes. The final concentration of DMSO introduced into the assay was 0.25%.
Glucokinase was added to the buffer mixture to initiate the reaction in the presence and absence of compound. The reaction was monitored by absorbance at 340 nm due to the depletion of NADH. The initial reaction velocity was measured by the slope of a linear time course of 0-300 seconds. The percentage of activation was calculated by the following equation:
% Activation=(Va/Vo−1)×100;
wherein each of Va and Vo is defined as the initial reaction velocity in the presence and absence of the tested compound, respectively.
To determine the EC50 (half maximal effective concentration) and % maximum activation, compounds were serially diluted in DMSO by 3-fold. The GK activities were measured as a function of compound concentrations. The data were fitted to the equation below to obtain the EC50 and % max activation values:
Va/Vo=1+(% max activation/100)/(1+EC50/compound concentration)

With `O=C(O)Cc1cnc(NC(=O)[C@H](CC2CCCC2)n2cc(C(F)(F)F)ccc2=O)s1` [Example 26, (S)-2-(2-(3-cyclopentyl-2-(2-oxo-5-(trifluoromethyl)pyridin-1(2H)-yl)propanamido)thiazol-5-yl)acetic acid mono acetic acid salt], the Emax worked out at 116% and the concentration for a half-maximal effect (EC50) is 11.1 µM.
As for `COC(=O)c1ccc(NC(=O)[C@H](CC2CCCC2)n2cc(C(F)(F)F)ccc2=O)nc1` [Example 27, (S)-methyl 6-(3-cyclopentyl-2-(2-oxo-5-(trifluoromethyl)pyridin-1(2H)-yl)propanamido)nicotinate], the Emax was determined as 84% and the 50% effective concentration (EC50) is 0.2 µM.
For `O=C(O)c1ccc(NC(=O)[C@H](CC2CCCC2)n2cc(C(F)(F)F)ccc2=O)nc1` [Example 28, (S)-6-(3-cyclopentyl-2-(2-oxo-5-(trifluoromethyl)pyridin-1(2H)-yl)propanamido)nicotinic acid mono acetic acid salt], the Emax amounted to 147% and the EC50 was 0.5 µM.
Regarding `CCOP(=O)(Cc1cnc(NC(=O)[C@H](CC2CCCC2)n2cc(C(F)(F)F)ccc2=O)cn1)OCC` [Example 29, (S)-diethyl (5-(3-cyclopentyl-2-(2-oxo-5-(trifluoromethyl)pyridin-1(2H)-yl)propanamido)-pyrazin-2-yl)methylphosphonate], the Emax was found to be 141% and it took 5.7 µM to reach a half-maximal effect (EC50).
With `O=C(Nc1ccn(Cc2ccccc2)n1)[C@H](CC1CCCC1)n1ccc(C(F)(F)F)cc1=O` [Example 30, (S)—N-(1-benzyl-1H-pyrazol-3-yl)-3-cyclopentyl-2-(2-oxo-4-(trifluoromethyl)pyridin-1(2H)-yl)propanamide], the Emax came to 58% and a half-maximal response (EC50) required 4.2 µM.
`CC(C)(O)Cn1ccc(NC(=O)[C@H](CC2CCCC2)n2cc(C(F)(F)F)ccc2=O)n1` [Example 31, (S)-3-cyclopentyl-N-(1-(2-hydroxy-2-methylpropyl)-1H-pyrazol-3-yl)-2-(2-oxo-5-(trifluoromethyl)pyridin-1(2H)-yl)propanamide]: the Emax fell in the range of 172 to 194% and the EC50 lay in the range of 1.1 to 2 µM.
In the case of `CC(C)(O)Cn1ccc(NC(=O)[C@H](CC2CCCC2)n2ccc(C(F)(F)F)cc2=O)n1` [Example 32, (S)-3-cyclopentyl-N-(1-(2-hydroxy-2-methylpropyl)-1H-pyrazol-3-yl)-2-(2-oxo-4-(trifluoromethyl)pyridin-1(2H)-yl)propanamide], the Emax was in the range of 87 to 90% and the EC50 is 6.9 to 7.5 µM.
Turning to `O=C(Nc1ccc(CO)cn1)[C@H](CC1CCCC1)n1cc(C(F)(F)F)ccc1=O` [Example 33, (S)-3-cyclopentyl-N-(5-(hydroxymethyl)pyridin-2-yl)-2-(2-oxo-5-(trifluoromethyl)pyridin-1(2H)-yl)propanamide], the Emax fell in the range of 85 to 159% and the EC50 lay in the range of 0.3 to 0.5 µM.
On to `O=C(O)c1ccc(NC(=O)[C@H](CC2CCCC2)n2ccc(C(F)(F)F)cc2=O)nc1` [Example 34, (S)-6-(3-cyclopentyl-2-(2-oxo-4-(trifluoromethyl)pyridin-1(2H)-yl)propanamido)nicotinic acid], for which the Emax was in the range of 100 to 102% and the concentration giving a half-maximal response (EC50) fell in the range of 1.8 to 2.7 µM.
`Cc1cnc(NC(=O)[C@H](CC2CCCC2)n2cnc(C(F)F)cc2=O)cn1` [Example 35, (S)-3-cyclopentyl-2-(4-(difluoromethyl)-6-oxopyrimidin-1(6H)-yl)-N-(5-methylpyrazin-2-yl)propanamide]: the Emax came out at 144% and a half-maximal response (EC50) required 45 µM.
In the case of `Cc1ccc(NC(=O)[C@H](CC2CCCC2)n2cnc(C(F)F)cc2=O)nc1` [Example 36, (S)-3-cyclopentyl-2-(4-(difluoromethyl)-6-oxopyrimidin-1(6H)-yl)-N-(5-methylpyridin-2-yl)propanamide], the Emax was 106% and the concentration giving a half-maximal response (EC50) stood at 8.1 µM.
For `O=C(O)c1ccc(NC(=O)[C@H](CC2CCCCC2)n2ccc(C(F)(F)F)cc2=O)nc1` [Example 37, (S)-6-(3-cyclohexyl-2-(2-oxo-4-(trifluoromethyl)pyridin-1(2H)-yl)propanamido)nicotinic acid], the Emax lay in the range of 92 to 101% and the half-maximal effective concentration (EC50) was in the range of 1.5 to 3.5 µM.
In the same order, the values of `Cc1ccc(NC(=O)[C@H](CC2CCOCC2)n2cc(C(F)(F)F)ccc2=O)nc1` [Example 38, (S)—N-(5-methylpyridin-2-yl)-2-(2-oxo-5-(trifluoromethyl)pyridin-1(2H)-yl)-3-(tetrahydro-2H-pyran-4-yl)propanamide] are 57 to 70% and 2.9 to 4.6 µM.
The compound `Cc1cnc(NC(=O)[C@H](CC2CCOCC2)n2cc(C(F)(F)F)ccc2=O)cn1` [Example 39, (S)—N-(5-methylpyrazin-2-yl)-2-(2-oxo-5-(trifluoromethyl)pyridin-1(2H)-yl)-3-(tetrahydro-2H-pyran-4-yl)propanamide] showed an EC50 greater than 100 µM.
As to `Cn1ccc(NC(=O)[C@H](CC2CCOCC2)n2cc(C(F)(F)F)ccc2=O)n1` [Example 40, (S)—N-(1-methyl-1H-pyrazol-3-yl)-2-(2-oxo-5-(trifluoromethyl)pyridin-1(2H)-yl)-3-(tetrahydro-2H-pyran-4-yl)propanamide], the Emax was determined as 121% and the midpoint of the response, the EC50, lay at 54 µM.
With `Cc1ccc(NC(=O)[C@H](CC2CCOCC2)n2ccc(C(F)(F)F)cc2=O)nc1` [Example 41, (S)—N-(5-methylpyridin-2-yl)-2-(2-oxo-4-(trifluoromethyl)pyridin-1(2H)-yl)-3-(tetrahydro-2H-pyran-4-yl)propanamide], the half-maximal effective concentration (EC50) is greater than 100 µM.
Compound `Cc1cnc(NC(=O)[C@H](CC2CCOCC2)n2ccc(C(F)(F)F)cc2=O)cn1` [Example 42, (S)—N-(5-methylpyrazin-2-yl)-2-(2-oxo-4-(trifluoromethyl)pyridin-1(2H)-yl)-3-(tetrahydro-2H-pyran-4-yl)propanamide] had an EC50 greater than 100 µM.
On to `Cn1ccc(NC(=O)[C@H](CC2CCOCC2)n2ccc(C(F)(F)F)cc2=O)n1` [Example 43, (S)—N-(1-methyl-1H-pyrazol-3-yl)-2-(2-oxo-4-(trifluoromethyl)pyridin-1(2H)-yl)-3-(tetrahydro-2H-pyran-4-yl)propanamide], for which the half-maximal effective concentration (EC50) is greater than 100 µM.
